Source: US6627581B1, “Cyclopropyl-anellated 3-(4,5-dihydroisoxazol-3-yl)-substituted benzoylpyrazoles” (BASF Aktiengesellschaft, priority 1999, dated 2003)

Experiments:
Avena fatua = experiment: greenhouse post-emergence herbicidal test; assay type: in vivo; conditions: Avena fatua (wild oat), application rates of 0.25 or 0.125 kg/ha, 2 to 4 weeks
From the text: (§1) The cultivation containers used were plastic pots containing loamy sand with approximately 3.0% of humus as the substrate. The seeds of the test plants were sown separately for each species.
(§2) For the post-emergence treatment, the test plants were first grown to a height of from 3 to 15 cm, depending on the plant habit, and only then treated with the active compounds which had been suspended or emulsified in water. The test plants were for this purpose either sown directly and grown in the same containers, or they were first grown separately as seedlings and transplanted into the test containers a few days prior to treatment. The application rate for the post-emergence treatment was 0.25 or 0.125 kg of a.s. (active substance)/ha.
(§3) Depending on the species, the plants were kept at 10-25° C. or 20-35° C. The test period extended over from 2 to 4 weeks. During this time, the plants were tended, and their response to the individual treatments was evaluated.
(§4) The evaluation was carried out using a scale from 0 to 100. 100 means no emergence of the plants, or complete destruction of at least the aerial parts and 0 means no damage, or normal course of growth.
(§5) The plants used in the greenhouse experiments were of the following species: […]

Amaranthus retroflexus = experiment: greenhouse post-emergence herbicidal test; assay type: in vivo; conditions: Amaranthus retroflexus (pig weed), application rates of 0.25 or 0.125 kg/ha, 2 to 4 weeks
From the text: as §1, §2, §3, §4, §5

Setaria faberi = experiment: greenhouse post-emergence herbicidal test; assay type: in vivo; conditions: Setaria faberi (giant foxtail), application rates of 0.25 or 0.125 kg/ha, 2 to 4 weeks
From the text: as §1, §2, §3, §4, §5

Polygonum persicaria = experiment: greenhouse post-emergence herbicidal test; assay type: in vivo; conditions: Polygonum persicaria (ladysthumb), application rates of 0.25 or 0.125 kg/ha, 2 to 4 weeks
From the text: as §1, §2, §3, §4, §5

Echinochloa crus galli = experiment: greenhouse post-emergence herbicidal test; assay type: in vivo; conditions: Echinochloa crus galli (barnyardgrass), application rates of 0.25 or 0.125 kg/ha, 2 to 4 weeks
From the text: as §1, §2, §3, §4, §5

Chenopodium album = experiment: greenhouse post-emergence herbicidal test; assay type: in vivo; conditions: Chenopodium album (lambsquaters), application rates of 0.25 or 0.125 kg/ha, 2 to 4 weeks
From the text: as §1, §2, §3, §4, §5

| melting point [°C] | SMILES | other results |
| --- | --- | --- |
| 106 to 112 | Cc1c(C(=O)c2cnn(C)c2O)ccc(S(C)(=O)=O)c1C1=NOC2CC12 (centres unmarked) [Compound 2.3, 4-[2-Methyl-3-(2-oxa-3-azabicyclo[3.1.0]hex-3-en-4-yl)-4-methyl-sulfonylbenzoyl]-5-hydroxy-1-methyl-1H-pyrazole] | – |
| 90 to 95 | Cc1c(C(=O)c2cnn(C(C)C)c2O)ccc(S(C)(=O)=O)c1C1=NOC2CC12 (centres unmarked) [Compound 2.4] | – |
| 94 to 97 | CCn1ncc(C(=O)c2ccc(S(C)(=O)=O)c(C3=NOC4CC34)c2C)c1O (centres unmarked) [Compound 2.2] | – |
| 69 to 74 | Cc1c(C(=O)c2cnn(C(C)(C)C)c2O)ccc(S(C)(=O)=O)c1C1=NOC2CC12 (centres unmarked) [Compound 2.1, 4-[2-Methyl-3-(2-oxa-3-aza-bicyclo[3.1.0]hex-3-en-4-yl)-4-methylsulfonylbenzoyl]-5-hydroxy-1-tert-butyl-1H-pyrazole] | – |

The remaining lines, values behind:

| SMILES | melting point [°C] | other results |
| --- | --- | --- |
| Cc1c(C(=O)c2cnn(C(C)C)c2O)ccc(S(C)(=O)=O)c1C1=NOC2CC12C (centres unmarked) [Compound 2.14] | 75 to 80 | – |
| Cc1c(C(=O)c2cnn(C)c2O)ccc(S(C)(=O)=O)c1C1=NOC2CC12C (centres unmarked) [Compound 2.13] | 99 to 103 | – |
| Cc1c(C(=O)c2cnn(C(C)(C)C)c2O)ccc(S(C)(=O)=O)c1C1=NOC2(C)CC12 (centres unmarked) [Compound 2.10] | 90 to 95 | – |
| Cc1c(C(=O)c2cnn(C)c2O)ccc(S(C)(=O)=O)c1C1=NOC2(C)CC12 (centres unmarked) [Compound 2.7] | 98 to 102 | – |
| Cc1c(C(=O)c2cnn(C(C)C)c2O)ccc(S(C)(=O)=O)c1C1=NOC2(C)CC12 (centres unmarked) [Compound 2.11] | 67 to 70 | – |
| Cc1nn(C)c(O)c1C(=O)c1ccc(S(C)(=O)=O)c(C2=NOC3CC23)c1C (centres unmarked) [Compound 2.5] | 89 to 91 | post-emergence action (Avena fatua): very good; post-emergence action (Amaranthus retroflexus): very good; post-emergence action (Setaria faberi): very good; post-emergence action (Polygonum persicaria): very good; post-emergence action (Echinochloa crus galli): very good; post-emergence action (Chenopodium album): very good |
| Cc1c(C(=O)c2cnn(C(C)(C)C)c2O)ccc(S(C)(=O)=O)c1C1=NOC2CC12C (centres unmarked) [Compound 2.16] | 110 to 115 | – |
